Data taken from ChEMBL document CHEMBL1143249, “N-alkyl-4-piperidinyl-2,3-diarylpyrrole derivatives with heterocyclic substitutions as potent and broad spectrum anticoccidial agents” (Bioorg Med Chem Lett, 2008).
Calls of active or inactive are those of the source. The rule behind the calls is not given here.

Tests used:
[1] = molecular target: cGMP-dependent protein kinase (Eimeria tenella, UniProt Q8MMZ8); test: Inhibition of Eimeria tenella cGMP-dependent protein kinase
Eimeria acervulina [2] = test: Anticoccidial activity against Eimeria acervulina in chick assessed as reduction in oocyst at 100 ppm, po after 5 days; assay type: functional; set-up: scale not given: the % may be the effect or the level left
Eimeria tenella [3] = test: Anticoccidial activity against Eimeria tenella in chick assessed as reduction in oocyst at 100 ppm, po after 6 days; assay type: functional; set-up: scale not given: the % may be the effect or the level left
Eimeria acervulina [4] = test: Anticoccidial activity against Eimeria acervulina in chick assessed as reduction in oocyst at 50 ppm, po after 5 days; assay type: functional, organism-based
Eimeria tenella [5] = test: Anticoccidial activity against Eimeria tenella in chick assessed as reduction in oocyst at 50 ppm, po after 6 days; assay type: functional, organism-based

Sequence of cGMP-dependent protein kinase (Q8MMZ8 whole entry): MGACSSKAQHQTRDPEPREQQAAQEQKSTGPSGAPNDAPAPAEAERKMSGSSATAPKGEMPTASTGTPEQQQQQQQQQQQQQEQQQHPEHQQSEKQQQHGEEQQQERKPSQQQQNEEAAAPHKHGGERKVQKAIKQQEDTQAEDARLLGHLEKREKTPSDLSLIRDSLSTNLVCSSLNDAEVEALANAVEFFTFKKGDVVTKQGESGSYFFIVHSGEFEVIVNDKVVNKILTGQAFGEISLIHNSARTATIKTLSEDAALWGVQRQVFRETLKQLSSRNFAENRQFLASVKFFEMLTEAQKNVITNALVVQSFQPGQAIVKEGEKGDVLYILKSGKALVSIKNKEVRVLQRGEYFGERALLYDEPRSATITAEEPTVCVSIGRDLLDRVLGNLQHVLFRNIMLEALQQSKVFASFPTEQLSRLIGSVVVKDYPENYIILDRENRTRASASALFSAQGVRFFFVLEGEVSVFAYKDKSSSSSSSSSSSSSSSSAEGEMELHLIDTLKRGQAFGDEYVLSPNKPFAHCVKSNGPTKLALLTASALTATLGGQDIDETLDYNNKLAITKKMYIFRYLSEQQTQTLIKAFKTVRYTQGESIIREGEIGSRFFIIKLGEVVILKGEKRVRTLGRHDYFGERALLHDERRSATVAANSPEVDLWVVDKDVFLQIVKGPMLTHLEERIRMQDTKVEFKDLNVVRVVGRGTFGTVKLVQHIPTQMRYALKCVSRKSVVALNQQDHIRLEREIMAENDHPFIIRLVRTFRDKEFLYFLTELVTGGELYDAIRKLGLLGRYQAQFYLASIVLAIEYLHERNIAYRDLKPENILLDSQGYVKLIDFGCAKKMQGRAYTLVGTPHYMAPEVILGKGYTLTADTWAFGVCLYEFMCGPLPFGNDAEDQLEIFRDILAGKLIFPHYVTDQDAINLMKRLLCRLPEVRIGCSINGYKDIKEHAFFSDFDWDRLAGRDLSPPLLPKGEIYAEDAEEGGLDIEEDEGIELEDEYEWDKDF

SMILES | IC50 [1] [nM] | Activity (Eimeria acervulina [2]) | Activity (Eimeria tenella [3]) | Activity (Eimeria acervulina [4]) | Activity (Eimeria tenella [5])
Fc1ccc(-c2[nH]c(C3CCN(CC4CNCCN4)CC3)cc2-c2ccncc2)cc1 (stereo unspecified) | 0.07 | 50% | 80% | – | –
CCN1C[C@H](O)C[C@H]1CN1CCC(c2cc(-c3ccncc3)c(-c3ccc(F)cc3)[nH]2)CC1 | 0.36 | 50% | 80% | – | –
CC(=O)N1CCN(C(C)=O)C(CN2CCC(c3cc(-c4ccncc4)c(-c4ccc(F)cc4)[nH]3)CC2)C1 (stereo unspecified) | 2.2 | inactive | inactive | – | –
CN1C[C@H](O)C[C@H]1CN1CCC(c2cc(-c3ccncc3)c(-c3ccc(F)cc3)[nH]2)CC1 | 0.34 | 50% | 80% | – | –
Fc1ccc(-c2[nH]c(C3CCN(CC4CNCCO4)CC3)cc2-c2ccncc2)cc1 (stereo unspecified) | 0.17 | 50% | 80% | – | –
COC(=O)N1CCOC(C(=O)N2CCC(c3cc(-c4ccncc4)c(-c4ccc(F)cc4)[nH]3)CC2)C1 (stereo unspecified) | 4.7 | 50% | 50% | – | –
O=C(CN1CCC(c2cc(-c3ccncc3)c(-c3ccc(F)cc3)[nH]2)CC1)N1CCC1 | 1.01 | 80% | 80% | – | –
OC[C@@H]1CCN1CCN1CCC(c2cc(-c3ccncc3)c(-c3ccc(F)cc3)[nH]2)CC1 | 1.7 | 80% | 80% | – | –
CN1CC[C@H]1CN1CCC(c2cc(-c3ccncc3)c(-c3ccc(F)cc3)[nH]2)CC1 | 0.28 | 80% | 80% | – | –
O[C@H]1CN[C@H](CN2CCC(c3cc(-c4ccncc4)c(-c4ccc(F)cc4)[nH]3)CC2)C1 | 0.16 | 50% | 80% | – | –
O=C(C1CNCCO1)N1CCC(c2cc(-c3ccncc3)c(-c3ccc(F)cc3)[nH]2)CC1 (stereo unspecified) | 0.27 | 50% | 80% | – | –
CN1CCOC(CN2CCC(c3cc(-c4ccncc4)c(-c4ccc(F)cc4)[nH]3)CC2)C1 (stereo unspecified) | 0.67 | 80% | 80% | Active | Active
Fc1ccc(-c2[nH]c(C3CCN(CCN4CCC4)CC3)cc2-c2ccncc2)cc1 | 0.08 | 80% | 80% | – | –
COC(=O)N1CCOC(CN2CCC(c3cc(-c4ccncc4)c(-c4ccc(F)cc4)[nH]3)CC2)C1 (stereo unspecified) | 1.03 | 50% | 80% | – | –
CC(CN1CCC1)N1CCC(c2cc(-c3ccncc3)c(-c3ccc(F)cc3)[nH]2)CC1 (stereo unspecified) | 0.4 | 80% | 80% | – | –
CN1CCN(C)C(CN2CCC(c3cc(-c4ccncc4)c(-c4ccc(F)cc4)[nH]3)CC2)C1 (stereo unspecified) | 1.08 | 50% | 50% | – | –
CC(=O)N1C[C@H](O)C[C@H]1CN1CCC(c2cc(-c3ccncc3)c(-c3ccc(F)cc3)[nH]2)CC1 | 2.2 | 50% | 80% | – | –
CS(=O)(=O)N1CCN(S(C)(=O)=O)C(CN2CCC(c3cc(-c4ccncc4)c(-c4ccc(F)cc4)[nH]3)CC2)C1 (stereo unspecified) | 1.41 | inactive | inactive | – | –
